Patent US5442043A, “Peptide conjugate” (Takeda Chemical Industries, Ltd., priority 1992, dated 1995)
Bridge positions count the residues as written; N and C are the ends. Peptide text beside a SMILES is read from it. I, II: the chains in the order shown.

Tests used:
[1] = molecular target: T1, insulin receptor on the capillary endothelial cell (Bos taurus, UniProt F1MV64); experiment: Competitive inhibition of 125I-insulin binding on bovine brain microvessel endothelial cell monolayers
T1 construct: endogenous in cells; host or cells: primary bovine brain microvessel endothelial cell monolayers
T1 sequence (F1MV64 28-1382): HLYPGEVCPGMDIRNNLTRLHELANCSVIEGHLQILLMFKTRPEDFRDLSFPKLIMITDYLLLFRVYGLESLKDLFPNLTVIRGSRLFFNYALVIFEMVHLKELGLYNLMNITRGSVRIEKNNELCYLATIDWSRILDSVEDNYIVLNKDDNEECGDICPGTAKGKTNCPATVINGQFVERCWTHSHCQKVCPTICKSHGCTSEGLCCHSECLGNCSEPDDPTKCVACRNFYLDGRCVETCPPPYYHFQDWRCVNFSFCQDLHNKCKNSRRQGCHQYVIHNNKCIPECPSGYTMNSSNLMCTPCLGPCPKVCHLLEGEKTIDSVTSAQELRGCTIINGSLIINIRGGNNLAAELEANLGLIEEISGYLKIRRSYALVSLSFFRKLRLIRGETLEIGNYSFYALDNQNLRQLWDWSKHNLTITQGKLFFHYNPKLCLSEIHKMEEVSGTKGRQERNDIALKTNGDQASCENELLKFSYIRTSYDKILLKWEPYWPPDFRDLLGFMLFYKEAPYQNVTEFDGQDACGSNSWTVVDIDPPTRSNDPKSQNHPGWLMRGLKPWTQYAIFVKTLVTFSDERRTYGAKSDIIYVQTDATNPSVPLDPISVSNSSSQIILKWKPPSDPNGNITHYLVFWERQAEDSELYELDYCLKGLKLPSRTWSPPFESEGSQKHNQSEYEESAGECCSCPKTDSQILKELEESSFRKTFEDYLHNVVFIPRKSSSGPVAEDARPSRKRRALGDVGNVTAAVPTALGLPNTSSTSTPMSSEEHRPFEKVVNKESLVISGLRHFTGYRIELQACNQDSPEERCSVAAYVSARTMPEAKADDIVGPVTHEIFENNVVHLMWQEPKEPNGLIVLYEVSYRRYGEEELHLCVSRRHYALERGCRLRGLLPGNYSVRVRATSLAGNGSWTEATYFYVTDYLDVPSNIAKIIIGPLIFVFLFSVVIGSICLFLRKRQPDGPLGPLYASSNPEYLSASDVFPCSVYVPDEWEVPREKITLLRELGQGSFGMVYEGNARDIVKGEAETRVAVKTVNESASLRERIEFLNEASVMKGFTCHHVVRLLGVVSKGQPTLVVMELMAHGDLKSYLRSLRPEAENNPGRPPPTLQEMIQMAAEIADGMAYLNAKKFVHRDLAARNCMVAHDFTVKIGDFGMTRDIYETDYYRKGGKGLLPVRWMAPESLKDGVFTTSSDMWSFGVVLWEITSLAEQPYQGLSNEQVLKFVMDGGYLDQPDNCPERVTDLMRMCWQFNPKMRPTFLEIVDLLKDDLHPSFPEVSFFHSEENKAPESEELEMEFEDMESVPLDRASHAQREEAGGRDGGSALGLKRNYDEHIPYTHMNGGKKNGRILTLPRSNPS
Description: In accordance with the description by Ronald T. Borchart et al. of the United States in "Characteristics of the Large Neutral Amino Acid Transport System of Bovine Brain Microvessel Endothelial Cell Monolayers" [Journal of Neurochemistry, Vol. 47, pp. 484-488 (1986)], bovine brain microvessel endothelial cells were separated in a monolayer, whose affinity for the receptor on the endothelial cell was determined.

[2] = compared with natural insulin; cited from earlier work

Compound | 125I-insulin binding ratio (%) after addition of non-labeled compound ([1]; addition concentration 1.0 × 10 μM) [%] | 125I-insulin binding ratio (%) after addition of non-labeled compound ([1]; addition concentration 1.0 × 10^2 μM (first line so printed)) [%] | 125I-insulin binding ratio (%) after addition of non-labeled compound ([1]; addition concentration 1.0 × 10^2 μM (second line so printed)) [%] | Affinity for the insulin receptor on the capillary endothelial cell (in words) ([1]; fragments obtained by solid phase synthesis, Examples 4 and 5) | Affinity for the receptor on the cerebral capillary endothelial cell (in words) ([1]; fragments obtained by trypsin digestion, Examples 1 and 2) | Insulin activity (in words) [2]
CC[C@H](C)[C@H](NC(=O)CN)C(=O)N[C@H](C(=O)N[C@@H](CCC(=O)O)C(=O)N[C@@H](CCC(N)=O)C(=O)N[C@H]1CSSC[C@@H](C(=O)N[C@@H](CO)C(=O)N[C@@H](CC(C)C)C(=O)N[C@@H](Cc2ccc(O)cc2)C(=O)O)NC(=O)[C@H]([C@@H](C)CC)NC(=O)[C@H](CO)NC(=O)[C@H]([C@@H](C)O)NC(=O)[C@H](CSSC[C@H](NC(=O)[C@H](CC(C)C)NC(=O)[C@H](Cc2c[nH]cn2)NC(=O)[C@H](CCC(N)=O)NC(=O)[C@H](CC(N)=O)NC(=O)[C@@H](NC(=O)[C@@H](N)Cc2ccccc2)C(C)C)C(=O)NCC(=O)N[C@@H](CO)C(=O)N[C@@H](Cc2c[nH]cn2)C(=O)N[C@@H](CC(C)C)C(=O)N[C@H](C(=O)N[C@@H](CCC(=O)O)C(=O)N[C@@H](C)C(=O)N[C@@H](CC(C)C)C(=O)N[C@@H](Cc2ccc(O)cc2)C(=O)O)C(C)C)NC1=O)C(C)C [F001] (I: H-FVNQHLCGSHLVEALY-OH / II: H-GIVEQCCTSICSLY-OH; disulfide I:7-II:7, II:6-II:11) | 93.2 ± 0.4 | 61.6 ± 1.2 | 78.5 ± 3.8 | same affinity as insuline frogments obtained in Example 1 and 2 | showed affinity | 
(B25-30) pentapeptide deficient-[Phe^B25 -α-carboxyamide]insulin |  |  |  |  |  | acts as potently as natural insulin
